Assay results taken from article PMC7600264, “Quasi-Irreversible Inhibition of CYP2D6 by Berberine” (Pharmaceutics, 2020).
Like-named read-outs stand apart in the source and are kept apart here. Values belong to the compound of their own block, whether it stands above or below them.

How the values were obtained:
[1] = target: T1, CYP2D6 (Homo sapiens, UniProt P10635); assay: Direct CYP inhibition assay using pooled HLM
Description: (§1) The enzyme reactions were initiated by adding NADPH (1 mM), and the mixtures were incubated at 37 °C for 5 min in a shaking water bath (100 rpm). The reaction was terminated by adding ice-cold acetonitrile (ACN) containing CBZ (100 nM) and 4-methyl-umbelliferone (300 nM) as internal standards (IS).
(§2) The chromatographic separation was performed on an Agilent 1200 series HPLC system (Agilent Technologies, Santa Clara, CA, USA) equipped with an Atlantis^TM dC18 column (2.1 × 50 mm, 3 µm; Waters Corporation, Milford, MA, USA) with a SecuityGuard^TM C18 guard column (2.0 × 4.0 mm; Phenomenex, Torrance, CA, USA). The mobile phases consisted of double-deionized water (DDW) containing 0.1% (v/v) of formic acid (A) and ACN containing 0.1% (v/v) formic acid (B). […] The sample injection volume was 10 µL, and the total run time was 9.0 min. The column and auto-sampler compartments were maintained at 30 °C and 10 °C, respectively, throughout the analysis. The detection was performed using an API4000 Q-TRAP system equipped with a Turbo V Ion Spray^TM source (Applied Biosystems, Foster City, CA, USA). The operating conditions were optimized as follows: ionization voltage: 5500 V for positive-ion mode and −4500 V for negative-ion mode; ion source temperature: 550 °C; nebulizing gas flow: 50 L/min; auxiliary gas flow: 40 L/min; and curtain gas flow: 30 L/min. The samples were analyzed via multiple reaction monitoring (MRM) mode. […] The data acquisition and processing were performed using Analyst^TM software (version 1.5.2; Applied Biosystems, Foster City, CA, USA).

[2] = target: T1, CYP2D6; assay: Metabolism-dependent CYP2D6 inhibition assay (IC50 shift) using pooled HLM; settings: pooled HLM; for MDI (metabolism-dependent inhibition) of CYP2D6 (in words): pre-incubation with NADPH
Description: Pre-incubation was performed in pooled HLM (0.2 mg/mL) added with BBR, THB, TFD, or DMB, or rhCYP2D6 (10 pmol/mL) added with BBR, with or without NADPH (1 mM) in phosphate buffer (0.1 M; pH 7.4) for 30 min. Then, the CYP2D6 substrate (5 µM of dextromethorphan) and NADPH (1 mM) were added to the mixture and incubated for another 10 min. All incubations were carried out at 37 °C in a shaking water bath (100 rpm) using eight-well tube strips placed in an 8 × 12 rack, where the final volume of each reaction mixture was 200 µL. […] The enzyme reactions were quenched by adding an aliquot (200 µL) of ice-cold ACN containing CBZ (100 nM) as an IS. The samples were centrifuged, and the concentration of CYP2D6 metabolite (i.e., dextrorphan, produced by O-demethylation of dextromethorphan) in supernatants were analyzed using the LC-MS/MS method described in Section 2.2.

[3] = target: CYP2C9 (Homo sapiens, UniProt P11712); assay: Direct CYP inhibition assay using pooled HLM; settings: pooled HLM
CYP2C9, sequence (P11712 whole entry): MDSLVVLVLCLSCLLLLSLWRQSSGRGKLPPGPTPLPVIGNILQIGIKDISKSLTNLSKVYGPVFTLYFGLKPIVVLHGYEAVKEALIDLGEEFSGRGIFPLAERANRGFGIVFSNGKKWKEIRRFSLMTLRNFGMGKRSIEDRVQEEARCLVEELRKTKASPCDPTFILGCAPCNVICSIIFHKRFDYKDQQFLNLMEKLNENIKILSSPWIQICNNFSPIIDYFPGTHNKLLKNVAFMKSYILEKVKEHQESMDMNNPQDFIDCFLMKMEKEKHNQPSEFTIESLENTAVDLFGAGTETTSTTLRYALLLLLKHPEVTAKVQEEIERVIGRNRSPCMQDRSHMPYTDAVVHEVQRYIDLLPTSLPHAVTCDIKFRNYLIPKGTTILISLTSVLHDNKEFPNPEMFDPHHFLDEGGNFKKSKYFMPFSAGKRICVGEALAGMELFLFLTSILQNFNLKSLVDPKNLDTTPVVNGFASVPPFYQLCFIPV
Description: as §1, §2

[4] = Metabolic stability and metabolite formation of BBR in pooled HLM; settings: for Concentration in incubation mixture (elimination of BBR and formation of its metabolites): BBR 1 µM in pooled HLM with NADPH-generating system, mean ± SD
Description: To evaluate NADPH-dependent metabolism, BBR (1 µM) was incubated with pooled HLM (1 mg/mL) in the presence of the NADPH-regenerating system (1 mM of NADP^+, 5 mM of G6P, and 1 U/mL of G6PDH) to be a final volume of 200 µL. The reactions were quenched by adding the same volume of ice-cold ACN containing CBZ (100 nM) at 0, 7.5, 15, 30, 60, and 120 min of incubation. The incubation mixtures were centrifuged at 1000× g for 20 min at 4 °C, and the supernatants were analyzed by the LC-MS/MS system described in Section 2.2.
Meanwhile, to identify the known metabolites of BBR, an aliquot (5 µL) of the supernatant was injected into an accurate-MS system consisting of an Agilent 6530 Q-TOF LC/MS equipped with dual AJS ESI ion source (Agilent Technologies) and Agilent 1200 series HPLC system (Agilent Technologies). Chromatographic separations were performed on an Agilent Eclipse Plus C18 column (150 × 2.1 mm, 3.5 µm; Agilent Technologies) by gradient elution with a binary mobile phase consisting of DDW with 0.1% (v/v) formic acid (A) and ACN with 0.1% (v/v) formic acid (B) at a flow rate of 0.2 mL/min, where the mobile phase B was set as follows: 2% at 0 min, 20% at 15 min, and 30% at 20–25 min, followed by re-equilibration for 3 min.
In vitro metabolic stability parameters, including half-life (t1/2) and microsomal intrinsic clearance (CLint,mic), were determined according to our previous report [32]. The degradation t1/2 values of the microsomal stability studies were calculated using the following Equation (2):(2) t1/2=0.693/k, where k represents the first-order degradation rate constant. The k values were estimated by fitting a one-phase exponential decay model to the parent drug remaining (%) vs. incubation time plots using GraphPad Prism 5.0 (GraphPad Software Inc., San Diego, CA, USA).
The CLint,mic was determined using the in vitro half-life approach.

[5] = target: T2, CYP2A6 (Homo sapiens, UniProt P11509); assay: Direct CYP inhibition assay using pooled HLM; settings: pooled HLM
T2 sequence (P11509 1-494): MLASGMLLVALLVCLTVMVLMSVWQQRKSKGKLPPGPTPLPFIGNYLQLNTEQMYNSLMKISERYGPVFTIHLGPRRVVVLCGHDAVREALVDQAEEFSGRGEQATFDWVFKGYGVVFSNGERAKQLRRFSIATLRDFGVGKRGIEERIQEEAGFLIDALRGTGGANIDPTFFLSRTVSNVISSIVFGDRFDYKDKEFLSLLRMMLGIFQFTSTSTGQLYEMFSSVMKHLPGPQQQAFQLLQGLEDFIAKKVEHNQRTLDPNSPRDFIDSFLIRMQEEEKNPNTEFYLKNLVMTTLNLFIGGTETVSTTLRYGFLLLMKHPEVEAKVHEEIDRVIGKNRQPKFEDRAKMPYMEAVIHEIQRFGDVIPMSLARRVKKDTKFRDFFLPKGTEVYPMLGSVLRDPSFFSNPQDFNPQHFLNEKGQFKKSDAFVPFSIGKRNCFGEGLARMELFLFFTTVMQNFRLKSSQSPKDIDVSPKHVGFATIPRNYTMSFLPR
Description: as §1, §2

[6] = target: T3, CYP1A2 (Homo sapiens, UniProt P05177); assay: Direct CYP inhibition assay using pooled HLM; settings: pooled HLM
T3 sequence (P05177 1-516): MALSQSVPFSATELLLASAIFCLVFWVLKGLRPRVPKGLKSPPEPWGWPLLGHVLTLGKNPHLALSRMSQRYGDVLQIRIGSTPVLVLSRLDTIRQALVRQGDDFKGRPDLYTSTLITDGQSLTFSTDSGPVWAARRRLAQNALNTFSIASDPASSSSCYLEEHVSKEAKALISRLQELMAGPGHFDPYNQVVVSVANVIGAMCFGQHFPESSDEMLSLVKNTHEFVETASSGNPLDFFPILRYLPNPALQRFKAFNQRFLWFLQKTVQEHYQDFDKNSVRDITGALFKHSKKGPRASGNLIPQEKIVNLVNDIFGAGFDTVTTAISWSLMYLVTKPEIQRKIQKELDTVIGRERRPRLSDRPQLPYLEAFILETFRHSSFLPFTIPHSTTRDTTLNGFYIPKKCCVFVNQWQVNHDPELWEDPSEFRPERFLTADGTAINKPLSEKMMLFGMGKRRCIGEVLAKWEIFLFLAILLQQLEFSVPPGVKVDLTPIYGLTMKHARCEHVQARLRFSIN
Description: as §1, §2

[7] = target: CYP3A4 (Homo sapiens, UniProt P08684); assay: Direct CYP inhibition assay using pooled HLM
CYP3A4, sequence (P08684 whole entry): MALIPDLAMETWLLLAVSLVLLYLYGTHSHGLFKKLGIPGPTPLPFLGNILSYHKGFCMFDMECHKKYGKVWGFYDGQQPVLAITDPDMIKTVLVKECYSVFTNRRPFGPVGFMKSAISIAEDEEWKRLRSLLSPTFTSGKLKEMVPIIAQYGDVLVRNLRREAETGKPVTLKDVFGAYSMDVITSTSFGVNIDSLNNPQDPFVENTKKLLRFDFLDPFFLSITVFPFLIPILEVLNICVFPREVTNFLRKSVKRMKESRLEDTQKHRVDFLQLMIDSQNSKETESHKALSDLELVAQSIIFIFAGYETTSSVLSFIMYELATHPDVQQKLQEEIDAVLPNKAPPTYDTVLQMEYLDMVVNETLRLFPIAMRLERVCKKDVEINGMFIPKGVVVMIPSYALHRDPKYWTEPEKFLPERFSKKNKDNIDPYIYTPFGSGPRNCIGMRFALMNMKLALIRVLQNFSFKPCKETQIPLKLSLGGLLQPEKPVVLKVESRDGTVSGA
Description: as §1, §2

[8] = target: T4, CYP2C8 (Homo sapiens, UniProt P10632); assay: Direct CYP inhibition assay using pooled HLM; settings: pooled HLM
T4 sequence (P10632 1-490): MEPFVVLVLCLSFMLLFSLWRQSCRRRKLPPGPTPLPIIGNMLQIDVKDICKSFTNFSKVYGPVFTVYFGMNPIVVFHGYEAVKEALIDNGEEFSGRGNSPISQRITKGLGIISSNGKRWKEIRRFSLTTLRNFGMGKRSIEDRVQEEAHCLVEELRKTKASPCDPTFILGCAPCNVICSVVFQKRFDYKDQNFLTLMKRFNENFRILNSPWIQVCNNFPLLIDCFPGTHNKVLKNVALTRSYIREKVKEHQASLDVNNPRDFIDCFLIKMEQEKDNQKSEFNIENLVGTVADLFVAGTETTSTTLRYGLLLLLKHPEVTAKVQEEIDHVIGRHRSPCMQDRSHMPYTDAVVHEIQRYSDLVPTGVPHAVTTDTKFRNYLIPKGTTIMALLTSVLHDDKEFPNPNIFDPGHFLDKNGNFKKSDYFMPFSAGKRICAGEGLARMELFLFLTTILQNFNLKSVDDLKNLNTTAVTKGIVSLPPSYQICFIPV
Description: as §1, §2

[9] = target: CYP2E1 (Homo sapiens, UniProt P05181); assay: Direct CYP inhibition assay using pooled HLM; settings: pooled HLM
CYP2E1, sequence (P05181 whole entry): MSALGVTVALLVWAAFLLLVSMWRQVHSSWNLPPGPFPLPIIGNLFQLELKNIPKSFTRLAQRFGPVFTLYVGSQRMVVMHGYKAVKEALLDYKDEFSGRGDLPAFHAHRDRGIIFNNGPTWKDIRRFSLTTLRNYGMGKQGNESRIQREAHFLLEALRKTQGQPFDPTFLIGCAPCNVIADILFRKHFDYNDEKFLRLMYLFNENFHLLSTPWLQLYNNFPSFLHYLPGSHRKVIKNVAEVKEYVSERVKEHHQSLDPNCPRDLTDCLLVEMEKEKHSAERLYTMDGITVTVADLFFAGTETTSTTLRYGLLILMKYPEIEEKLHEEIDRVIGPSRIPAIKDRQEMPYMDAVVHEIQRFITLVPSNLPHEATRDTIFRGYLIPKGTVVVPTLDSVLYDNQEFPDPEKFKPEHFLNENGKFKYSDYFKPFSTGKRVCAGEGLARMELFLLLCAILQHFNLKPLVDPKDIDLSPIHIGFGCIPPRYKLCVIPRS
Description: as §1, §2

[10] = target: CYP2C19 (Homo sapiens, UniProt P33261); assay: Direct CYP inhibition assay using pooled HLM; settings: pooled HLM
CYP2C19, sequence (P33261 whole entry): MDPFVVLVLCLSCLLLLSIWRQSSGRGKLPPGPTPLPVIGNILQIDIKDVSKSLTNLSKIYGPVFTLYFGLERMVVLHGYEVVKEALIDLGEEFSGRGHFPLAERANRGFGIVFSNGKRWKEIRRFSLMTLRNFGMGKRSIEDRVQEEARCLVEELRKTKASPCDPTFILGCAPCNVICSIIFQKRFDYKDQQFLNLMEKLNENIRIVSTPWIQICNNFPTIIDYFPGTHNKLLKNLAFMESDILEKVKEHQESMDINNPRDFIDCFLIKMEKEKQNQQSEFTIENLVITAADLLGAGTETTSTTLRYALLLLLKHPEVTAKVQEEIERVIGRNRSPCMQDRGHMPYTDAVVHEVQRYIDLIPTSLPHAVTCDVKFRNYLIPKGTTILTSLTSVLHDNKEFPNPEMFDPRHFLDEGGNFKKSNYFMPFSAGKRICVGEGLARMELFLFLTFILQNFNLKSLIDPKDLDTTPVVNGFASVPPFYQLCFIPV
Description: as §1, §2

[11] = target: T5, CYP2B6 (Homo sapiens, UniProt P20813); assay: Direct CYP inhibition assay using pooled HLM; settings: pooled HLM
T5 sequence (P20813 1-491): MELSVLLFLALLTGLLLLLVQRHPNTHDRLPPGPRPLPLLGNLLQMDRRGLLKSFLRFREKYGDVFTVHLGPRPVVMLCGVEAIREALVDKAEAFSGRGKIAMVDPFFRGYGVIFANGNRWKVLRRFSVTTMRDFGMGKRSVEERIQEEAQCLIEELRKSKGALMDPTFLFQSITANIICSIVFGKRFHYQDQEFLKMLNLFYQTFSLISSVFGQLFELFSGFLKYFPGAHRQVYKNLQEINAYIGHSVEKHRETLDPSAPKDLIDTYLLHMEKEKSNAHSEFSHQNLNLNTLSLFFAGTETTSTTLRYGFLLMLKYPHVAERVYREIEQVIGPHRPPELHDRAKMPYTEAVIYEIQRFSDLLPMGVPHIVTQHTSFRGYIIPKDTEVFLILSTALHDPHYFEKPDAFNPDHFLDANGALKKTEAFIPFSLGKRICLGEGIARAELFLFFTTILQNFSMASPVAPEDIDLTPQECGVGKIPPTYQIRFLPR
Description: as §1, §2

[12] = human, pooled human liver microsomes

T1 sequence (P10635 whole entry): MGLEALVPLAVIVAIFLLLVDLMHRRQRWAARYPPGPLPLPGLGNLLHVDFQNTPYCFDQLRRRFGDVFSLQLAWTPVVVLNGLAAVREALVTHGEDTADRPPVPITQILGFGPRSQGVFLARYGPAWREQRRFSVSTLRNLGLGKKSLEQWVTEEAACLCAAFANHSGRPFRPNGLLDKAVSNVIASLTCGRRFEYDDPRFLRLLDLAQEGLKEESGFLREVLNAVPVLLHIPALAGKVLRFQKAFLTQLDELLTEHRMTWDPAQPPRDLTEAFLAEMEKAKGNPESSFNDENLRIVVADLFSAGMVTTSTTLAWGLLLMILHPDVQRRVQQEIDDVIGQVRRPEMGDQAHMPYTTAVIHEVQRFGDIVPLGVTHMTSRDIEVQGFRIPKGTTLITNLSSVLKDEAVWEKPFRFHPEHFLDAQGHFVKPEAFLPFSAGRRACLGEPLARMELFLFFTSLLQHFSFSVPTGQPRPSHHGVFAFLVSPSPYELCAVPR

SMILES: COc1ccc2cc3[n+](cc2c1OC)CCc1cc2c(cc1-3)OCO2 [BBR, berberine]
- IC50 [1]: 11.9 µM
- IC50 ([2]; IC50 against CYP2D6, pre-incubation with NADPH, 30 min pre-incubation with NADPH): 1.66 µM
- IC50 ([2]; IC50 against CYP2D6, pre-incubation without NADPH, 30 min pre-incubation without NADPH): 12.4 µM
- MDI (metabolism-dependent inhibition) of CYP2D6 (in words) [2]: exhibited MDI
- Inhibition of CYP2C9 (in words) ([3]; up to 100 µM): not markedly inhibited
- Concentration in incubation mixture (elimination of BBR and formation of its metabolites) ([4]; 0 min): 1049 ± 16 nM
- Concentration in incubation mixture (elimination of BBR and formation of its metabolites) ([4]; 7.5 min): 807 ± 11 nM
- Concentration in incubation mixture (elimination of BBR and formation of its metabolites) ([4]; 15 min): 713 ± 12 nM
- Concentration in incubation mixture (elimination of BBR and formation of its metabolites) ([4]; 30 min): 539 ± 4 nM
- Concentration in incubation mixture (elimination of BBR and formation of its metabolites) ([4]; 60 min): 313 ± 15 nM
- Concentration in incubation mixture (elimination of BBR and formation of its metabolites) ([4]; 120 min): 147 ± 5 nM
- half-life at 1 µM [4, 12]: 35.4 min
- microsomal CLint at 1 µM [4, 12]: 7.82 µL/min/mg
- Metabolic stability in HLM (in words) ([4]; pooled HLM): moderately stable
- Inhibition of CYP2A6 (in words) ([5]; up to 100 µM): not markedly inhibited
- Inhibition of CYP1A2 (in words) ([6]; up to 100 µM): not markedly inhibited
- Inhibition of CYP3A4 (in words) ([7]; up to 100 µM, substrates MDZ and TST): not markedly inhibited
- Inhibition of CYP2C8 (in words) ([8]; up to 100 µM): not markedly inhibited
- Inhibition of CYP2E1 (in words) ([9]; up to 100 µM): not markedly inhibited
- Inhibition of CYP2C19 (in words) ([10]; up to 100 µM): not markedly inhibited
- Inhibition of CYP2B6 (in words) ([11]; up to 100 µM): not markedly inhibited

- IC50 ([1]; read-out: IC50 CYP2D6, pooled HLM, direct inhibition, substrate dextromethorphan, 95% confidence intervals in parentheses): 32 µM
- MDI (metabolism-dependent inhibition) of CYP2D6 (in words) [2]: not
- IC50 ([2]; read-out: IC50 against CYP2D6, pre-incubation with NADPH, 30 min pre-incubation with NADPH): 54.9 µM
- IC50 ([2]; read-out: IC50 against CYP2D6, pre-incubation without NADPH, 30 min pre-incubation without NADPH): 34.7 µM
- IC50 ([3]; read-out: IC50 CYP2C9, direct inhibition, 95% confidence intervals in parentheses): > 100 µM
- Concentration in incubation mixture (elimination of BBR and formation of its metabolites) ([4]; 0 min): 6.1 ± 0.1 nM
- Concentration in incubation mixture (elimination of BBR and formation of its metabolites) ([4]; 7.5 min): 24.1 ± 0.3 nM
- Concentration in incubation mixture (elimination of BBR and formation of its metabolites) ([4]; 15 min): 38.1 ± 0.5 nM
- Concentration in incubation mixture (elimination of BBR and formation of its metabolites) ([4]; 30 min): 52.6 ± 1.9 nM
- Concentration in incubation mixture (elimination of BBR and formation of its metabolites) ([4]; 60 min): 64.3 ± 1.6 nM
- Concentration in incubation mixture (elimination of BBR and formation of its metabolites) ([4]; 120 min): 75.0 ± 1.0 nM
- IC50 ([5]; read-out: IC50 CYP2A6, direct inhibition, 95% confidence intervals in parentheses): > 100 µM
- IC50 ([6]; read-out: IC50 CYP1A2, direct inhibition, 95% confidence intervals in parentheses): > 100 µM
- IC50 ([7]; read-out: IC50 CYP3A4 (MDZ), direct inhibition, substrate MDZ, 95% confidence intervals in parentheses): 66 µM
- IC50 ([7]; read-out: IC50 CYP3A4 (TST), direct inhibition, substrate TST, 95% confidence intervals in parentheses): 7.3 µM
- IC50 ([8]; read-out: IC50 CYP2C8, direct inhibition, 95% confidence intervals in parentheses): > 100 µM
- IC50 ([9]; read-out: IC50 CYP2E1, direct inhibition, 95% confidence intervals in parentheses): 7.7 µM
- IC50 ([10]; read-out: IC50 CYP2C19, direct inhibition, 95% confidence intervals in parentheses): > 100 µM
- IC50 ([11]; read-out: IC50 CYP2B6, direct inhibition, 95% confidence intervals in parentheses): > 100 µM
SMILES: COc1ccc2cc3[n+](cc2c1OC)CCc1cc(O)c(O)cc1-3 [DMB, demethyleneberberine]
